Test: gradient 5% acetonitrile 3 min, to 50% in 2 min, to 85% in 15 min, held 3 min, 100 µL/min
Settings: column: Zorbax Extend-C18 2.1 x 50 mm; eluents: water / acetonitrile, 0.1% formic acid
How it was run: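 Pure standards were run in mixtures of ~100 molecules by HPLC coupled to a quadrupole time-of-flight mass spectrometer. The column was a Zorbax Extend-C18 (2.1 × 50 mm, 1.8 μm) at 100 μL/min, with water and acetonitrile each containing 0.1% formic acid, in positive and negative ionization mode. Dead and dwell volumes were 40 μL and 900 μL. Retention time was taken from computationally picked adduct peaks, each manually inspected, with data collected over 3 months.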

SMILES	RP-LC retention time [s]
CCc1ccc(N2C(=O)Nc3ccccc3C2(O)C(=O)NCCN(CC)CC)cc1 (stereo not given)	575
COc1ccc(OC)c(NC(=O)NC2CCN(c3cc(C)cc(C)c3)C2=O)c1 (stereo not given)	887
CNC(=O)c1ccsc1NC(=O)c1ccc(Cl)s1	882
COc1ccc(NC(=O)c2noc3c2CCCC3)c(OC)c1	1170
O=C(Nc1ccc(F)cc1F)N1CC(Cc2nc(-c3cnccn3)no2)C1	690
COc1cc2c(cc1CNC(=O)Cn1cnc3cc4c(cc31)OCCO4)OCCCO2	629
Cc1ccc(NC(=O)C2CCN(C(=O)C3Sc4ccccc4NC3=O)CC2)c(C)c1 (stereo not given)	762
Cc1ccc(-c2nc3nc(C)cc(NC(C)C)n3n2)cc1	782
CCc1ccc(NC(=O)Cn2nc3n(c2=O)CCCCC3)cc1	709
COc1ccc(C2Cn3nnc(-c4nc(-c5ccncc5)no4)c3CO2)cc1 (stereo not given)	873
CCCC(=O)N1CCc2c([nH]c3ccccc23)C12C(=O)Nc1ccc(Br)cc12 (stereo not given)	924
CS(=O)(=O)NC(=O)c1cc(Cl)c(COc2ccc(Cl)c(Cl)c2)cc1F	1170
Cn1nc(-c2nnc(-c3ccccc3)o2)c2c1CCN(S(=O)(=O)c1ccc(F)cc1F)C2	955
CCc1ccc(C(=O)NC2CCN(c3ccccc3)C2=O)cc1 (stereo not given)	811
O=C1Nc2cc(C(=O)N3CCC(Cc4ccccc4)CC3)ccc2N2CCCCC12 (stereo not given)	1020
Cc1csc(-c2cc(S(=O)(=O)Nc3ccc(F)c(Cl)c3)c(C)s2)n1	1070
Fc1cccc(-c2noc(Cc3nc(-c4ccc(Cl)cc4)cs3)n2)c1	1330
Cn1c(CCNC(=O)c2ccc(C(F)(F)F)cc2)nc2cccnc21	686
CCn1c(SCC(=O)N2CCC(C(N)=O)CC2)nnc1-c1sc2ncccc2c1N	603
CC(C)(C)n1nnnc1C1CC2(CCOCC2)C(=O)N1CCc1c[nH]c2ccccc12 (stereo not given)	770
COc1ccc(-c2cn3c(CC(=O)NCc4cccc(Br)c4)csc3n2)cc1OC	764
COc1ccc(-c2cn3c(CC(=O)Nc4ccc(Br)c(C)c4)csc3n2)cc1	914
CCOc1cc(=O)n2c(c1C(=O)Nc1cc(Cl)ccc1OC)CCCC2	854

SMILES	RP-LC retention time [s]
CCn1cc(-c2nc(CC(=O)Nc3ccc(OC)cc3)cs2)c2cccnc21	858
Cc1ccc(N2C=C(C(=O)N3CCOCC3)S(=O)(=O)c3ccc(Cl)cc32)cc1F	886
Cc1ccc(S(=O)(=O)c2cnc(N3CCC4(CC3)OCCO4)nc2N)cc1C	900
COc1ccc(C2CC(=O)N(c3cccc(OC)c3)C(=O)C2)cc1	860
COC(=O)c1ccc2c(=O)n(-c3cccc(Cl)c3)c(N3CCOCC3)nc2c1	998
CCn1cc(CN(Cc2c(C)nn(C)c2C)C(=O)C2CCN(c3cnn(C)c(=O)c3)C2)cn1 (stereo not given)	603
CCOC(=O)c1csc(NC(=O)c2sc3ccccc3c2Cl)n1	999
COC(=O)c1cc2c(=O)n(-c3ccc4c(c3)OCCO4)ccc2nc1C	780
CCOc1ccc(-c2csc3c(=O)n(Cc4ccccn4)cnc23)cc1OCC	865
CN1C2CCC1CC(OC(=O)C(O)c1ccccc1)C2 (stereo not given)	794
Cn1nccc1-c1cccc(-c2noc(-c3ccccc3Cl)n2)c1	1170
COC(=O)C1=CN(c2ccccc2)c2cc(F)ccc2S1(=O)=O	787
COc1ccc(NC(=O)CSc2ccc(N3CCCC(C(=O)NC4CC4)C3)nn2)cc1Cl (stereo not given)	624
CC(C)n1c(=O)c(NCCc2ccc(Cl)cc2)nc2ccncc21	727
O=C(CSc1ccc(N2CCCC(C(=O)NC3CC3)C2)nn1)Nc1ccccc1Cl (stereo not given)	673
CCOC(=O)c1[nH]c2ccccc2c1NC(=O)c1ccc(N2C(=O)CCC2=O)cc1	699
Cn1nccc1-c1cccc(-c2noc(Cc3ccccc3F)n2)c1	1050
Cc1ccc(NC(=O)C2=C(Nc3ccc4c(c3)n(C)c(=O)n4C)c3ccccc3S2(=O)=O)cc1	902
CC1CCN(S(=O)(=O)c2cccc(-c3nnc(-c4ccc(F)cc4)o3)c2)CC1	1150
O=C(NC1CCN(c2cc(-c3ccc(Cl)cc3)[nH]n2)CC1)c1ccc2nc[nH]c2c1	634
O=C(NCC(=O)N1CCCc2ccccc21)c1ccoc1	708
Cc1cc(=O)n(CC(=O)Nc2ccc(C)c(C)c2)c(N2CCCC2)n1	668
Cc1n[nH]c(C)c1S(=O)(=O)N1CCC(c2nnc(C3CC3)s2)CC1	623

SMILES	RP-LC retention time [s]
COc1ccccc1-c1nc(-c2ccc3ncn(C)c3c2)no1	674
CC1CSc2ccc(S(=O)(=O)N3CCN(c4ccccn4)CC3)cc2NC1=O (stereo not given)	647
COc1cccc(C(=O)Nc2ccc(CC(=O)NCC(F)(F)F)cc2)c1OC	764
COc1ccc(-c2nc(NCc3cccnc3)c3ccccc3n2)cc1	574
NNC(=O)CSc1nc2scc(-c3ccccc3)c2c(=O)n1-c1ccccc1	838
COCc1nnc(-c2ccc3c(c2)OCO3)o1	722
COc1ccc(N2CC(c3nc(-c4ccc5c(c4)OCO5)no3)CC2=O)cc1Cl (stereo not given)	966
CCNC(=O)C1CCN(c2cc(SCC(=O)Nc3ccc(C(=O)OCC)cc3)ncn2)CC1	725
COc1ccc(C2(C(=O)N3CCC4(CC3)N(C)C(=O)CS4=O)CC2)cc1 (stereo not given)	636
COc1ccc(NC(=O)N2CC(Oc3ccc(-c4nc(-c5ccccc5)no4)cc3)C2)cc1	1090
Cc1cc(C)cc(NC(=O)C2CCN(S(=O)(=O)c3cn(C)cn3)CC2)c1	732
Cc1oc(C2CCN(S(=O)(=O)Cc3ccccc3)CC2)nc1C(=O)N1CCOCC1	759
Cc1ccccc1Oc1nccn2c(=O)n(CC(=O)Nc3ccc(F)cc3)nc12	838
Cc1cccc(NC(=O)NC2CCN(c3ccc(C)c(C)c3)C2=O)c1 (stereo not given)	923
Cc1ccccc1Cc1nc(-c2ccc3c(c2)nnn3CCN2CCOCC2)no1	692
CCOc1ccc(S(=O)(=O)N2CCC(C(=O)Nc3ccc4c(c3)OCCO4)CC2)cc1	903
C=CCNC(=O)c1cn(CCC)nc1S(=O)(=O)N1CCN(c2ccccc2OCC)CC1	1030
O=[N+]([O-])c1cccc(CSc2ccc3nnc(-c4cccs4)n3n2)c1	789
COc1cccc2cc(C(=O)NCC3CCN(C(=O)c4snnc4C)CC3)oc12	697
CC(=O)Nc1ccc(NC(=O)c2ccc3nc(-c4ccccc4)cn3c2)cc1	612
CCN1CCN(c2cc(C)c3cc(NC(=O)C4CCCCC4)ccc3n2)CC1	579
COc1ccc(Cl)cc1S(=O)(=O)N1CCC(c2noc(-c3ccccc3)n2)CC1	1130
Cc1cccc(CNC(=O)C2=C3CCCN3c3ccc(F)cc3S2(=O)=O)c1	936

SMILES	RP-LC retention time [s]
COc1ccc(-c2cn3c(n2)N(C(=O)c2cccs2)CCC3)cc1	883
CCc1ccc(S(=O)(=O)N2C[C@@H](F)C[C@H]2C(=O)N2CCOCC2)cc1	745
CCn1cc(S(=O)(=O)NC2CCCC2)c2cccnc21	808
CCOc1ccc(N2CCn3c2nn(Cc2ccc(C(=O)OC)o2)c(=O)c3=O)cc1	731
CC(C)(C)C(=O)Nc1ccc(NC(=O)C(C)(C)C)cc1	838
CC(C)CN1CCn2cc(S(=O)(=O)N3CCN(c4ccccc4)CC3)cc2C1=O	921
O=C1CSc2ccc(S(=O)(=O)N3CCN(c4ccccn4)CC3)cc2N1	604
CN1C(=O)c2cc(S(=O)(=O)Nc3ccc(F)c(F)c3)ccc2Oc2cccnc21	910
Cc1nccn1C1CN(C(=O)Nc2ccccc2)C1	568
O=C(CC1CCCC1)N1CCC(c2noc(-c3ccncc3)n2)C1 (stereo not given)	786
O=c1c2nc(-c3ccc4c(c3)OCO4)cn2ccn1-c1cccc(F)c1	785
Cc1cc(NC(=O)c2cc(Cl)sc2Cl)n(C(C)C)n1	810
CCOc1ccc(-c2cc3c(=O)n(Cc4nc(-c5ccc(C)cc5)no4)ncn3n2)cc1	784
Clc1cccc(CSc2ncnc3nc[nH]c23)c1	765
CCOCc1nc(C2CCCN2C(=O)c2ccsc2)no1 (stereo not given)	724
O=C(NC1CCCCC1)N1CCC(CCc2nc(C3CCOCC3)no2)CC1	709
COC(=O)c1ccc(-c2nc3cnccn3c2NC2CCCC2)cc1	877
Cc1onc(-c2c(F)cccc2Cl)c1C(=O)N1CCOCC1	727
CC(CCc1ccccc1)NC(=O)CCC(=O)N1CCCn2nc(-c3cccn3C)cc21 (stereo not given)	842
CC1(C)CC(=O)C2=C(C1)Nc1ccccc1N(CC(=O)NC1CCCC1)C2c1ccc(F)cc1 (stereo not given)	863
CCN1CCN(CCCNC(=O)c2oc3ccc4c(c3c2C)C(O)CC(C)(C)O4)CC1 (stereo not given)	592

From the METLIN SMRT retention time set (Domingo-Almenara et al. 2019)
